We go through 15 compounds from patent publication US20130197027A1, “HETEROCYCLYL-AZABICYCLO[3.2.1]OCTANE ANALOGS AS SELECTIVE M1 AGONISTS AND METHODS OF MAKING AND USING SAME” (priority 2010, published 2013).

One assay has as its target T1, rM1 (Rattus norvegicus, UniProt P08482).
T1 construct: host or cells: CHO-K1
T1 sequence (P08482 1-460): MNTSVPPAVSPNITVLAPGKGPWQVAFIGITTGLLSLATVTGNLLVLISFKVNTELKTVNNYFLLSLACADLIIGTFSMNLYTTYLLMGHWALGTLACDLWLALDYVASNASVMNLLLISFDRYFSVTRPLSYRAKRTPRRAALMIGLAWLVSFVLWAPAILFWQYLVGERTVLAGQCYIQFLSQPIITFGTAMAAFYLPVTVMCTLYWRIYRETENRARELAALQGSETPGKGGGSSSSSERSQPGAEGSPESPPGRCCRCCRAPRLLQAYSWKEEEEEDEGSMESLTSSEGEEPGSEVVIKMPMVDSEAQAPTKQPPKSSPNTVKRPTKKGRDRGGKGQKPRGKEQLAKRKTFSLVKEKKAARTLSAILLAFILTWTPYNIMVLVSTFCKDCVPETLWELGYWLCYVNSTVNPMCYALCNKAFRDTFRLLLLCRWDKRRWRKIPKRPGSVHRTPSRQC
In words: Calcium mobilization assay in CHO-K1 cells stably expressing rat M1 (low throughput, Flexstation II). The conditions noted are these: for Emax: RM1, read-out: Efficacy (% Max ACh). It counts as cell-based. The source says:
(§1) Chinese hamster ovary (CHO-K1) cells stably expressing rat (r) M1 were purchased from the American Type Culture Collection and cultured according to their indicated protocol. CHO cells stably expressing human (h)M2, hM3, and hM5 were described previously (Levey et al., 1991); hM1 and hM4 cDNAs were purchased from Missouri S&T cDNA Resource; rM4 cDNA was provided by T. I. Bonner (National Institutes of Health, Bethesda, Md.). hM1, hM4, and rM4 cDNAs were used to stably transfect CHO-K1 cells purchased from the American Type Culture Collection using Lipofectamine2000. To make stable hM2, hM4 and rM4 cell lines for use in calcium mobilization assays, these cells also were stably transfected with a chimeric G-protein (Gqi5) (provided by B. R. Conklin, University of California, San Francisco) using Lipofectamine 2000. rM1, hM3, and hM5 cells were grown in Ham's F-12 medium containing 10% heat-inactivated fetal bovine serum (FBS), 20 mM HEPES, and 50 μg/mL G418 sulfate. hM2-Gqi5 and hM4-Gqi5 cells were grown in the same medium also containing 500 μg/mL Hygromycin B. Stable rM4-Gqi5 cells were grown in DMEM containing 10% heat-inactivated FBS, 20 mM HEPES, 400 μg/mL G418 sulfate, and 500 μg/mL Hygromycin B. The rat M1 Y381A orthosteric mutant receptor cDNA was generated using the Quik-Change site-directed mutagenesis kit (Stratagene) and verified by sequencing. CHO-K1 cells were stably transfected with this cDNA using Lipofectamine2000 and screened for expression based on calcium mobilization in response to the allosteric M1 agonist N-desmethylclozapine.
For low throughput measurement of agonist-evoked increases in intracellular calcium, CHO-K1 cells stably expressing muscarinic receptors were plated in 100 μL of growth medium at 5×10^4 (rM1, hM3, and hM5) or 6×10^4 cells per well (rM1 Y381A, hM2, and rM4) in Costar 96-well black-walled, tissue culture (TC)-treated, clear-bottom plates (Fisher). Cells were incubated overnight at 37° C. and 5% CO2. The next day, medium was removed from the cells, and they were incubated with 50 μL of 2 μM Fluo-4/acetoxymethyl ester (Invitrogen, Carlsbad, Calif.) prepared as a 2.3 mM stock in DMSO and mixed in a 1:1 ratio with 10% (w/v) Pluronic F-127 and diluted in assay buffer [HBSS (Invitrogen) supplemented with 20 mM HEPES and 2.5 mM probenecid, pH 7.4] for 1 h at 37° C. and 5% CO2. Dye was removed and replaced with 50 μL of assay buffer. For calcium fluorescence measurements, CRCs of compounds (50 μl, 2×) were added 19 s after the beginning of data collection via a Flexstation II (Molecular Devices, Sunnyvale, Calif.). Fluorescence imaging continued for a total of 130 s acquisition time using an excitation wavelength of 488 nm, an emission wavelength of 525 nm, and a cutoff wavelength of 515 nm. All of the peaks of the calcium response were normalized to the response to a maximally effective concentration of ACh (ECmax). These normalized peak calcium response values were fit using GraphPad Prism version 4.0 to a four-parameter logistic equation to determine EC50 values.

The target of another assay is T2, hM1 (Homo sapiens, UniProt P11229).
T2 construct: host or cells: CHO-K1
T2 sequence (P11229 1-460): T1 sequence (P08482 1-460) with V5A, S254T, S309P, K320R, G337A, V413I
Kind of assay: Calcium mobilization assay in CHO-K1 cells stably expressing human M1 (high throughput, FDSS 6000). The conditions noted are these: for Emax: HM1, read-out: Efficacy (% Max ACh). The format is cell-based.
From the text: as §1
For high throughput measurement of agonist-evoked increases in intracellular calcium, CHO-K1 cells stably expressing muscarinic receptors were plated in growth medium lacking G418 and hygromycin at 15,000 cells/20 μL/well (hM1, hM2-Gqi5, hM3, hM4-Gqi5, and hM5) in Greiner 384-well black-walled, tissue culture (TC)-treated, clear-bottom plates (VWR). Cells were incubated overnight at 37° C. and 5% CO2. The next day, cells were washed using an ELX 405 (BioTek) with three washes (50 μL) of assay buffer then aspirated to 15 μL. Next, 5 μL of 8 μM Fluo-4/acetoxymethyl ester (Invitrogen, Carlsbad, Calif.) prepared as a 2.3 mM stock in DMSO and mixed in a 1:1 ratio with 10% (w/v) Pluronic F-127 and diluted in assay buffer was added to the wells and the cell plates were incubated for 45 min at 37° C. and 5% CO2. Dye was removed by washing with the ELX 405 (three 50 μL washes of assay buffer) then aspirated to 20 μL. Agonist and compound master plates were formatted in an 11 point CRC format (1:3 dilutions) in 100% DMSO with a starting concentration of 10 mM using the BRAVO liquid handler (Agilent). Test compound CRCs were then transferred to daughter plates ([…]) using the Echo acoustic plate reformatter (Labcyte, Sunnyvale, Calif.) and then diluted into assay buffer (40 μL) to a 2× stock using a Thermo Fisher Combi (Thermo Fisher Scientific, Waltham, Mass.). Calcium flux was measured using the Functional Drug Screening System (FDSS) 6000 (Hamamatsu Corporation, Tokyo, Japan) as an increase in the fluorescent static ratio. 20 μL of Agonist Compounds were applied to cells using the automated system of the FDSS 6000 at 4 s into the 300 s protocol and the data were collected at 1 Hz. Concentration-response curves were generated using a four-parameter logistical equation in XLfit curve fitting software (IDBS, Bridgewater, N.J.) for Excel (Microsoft, Redmond, Wash.) or Prism (GraphPad Software, Inc., San Diego, Calif.).

Where [1] appears, read: agonist-evoked calcium mobilization, CHO-K1 rM1 cells, read-out: rM1 Potency (EC50).
Where [2] appears, read: agonist-evoked calcium mobilization, CHO-K1 hM1 cells, read-out: hM1 Potency (EC50).

Substitutions are numbered along the chain they refer to. Where two headings read alike, the source gives them in different places.

In the case of `CCOC(=O)N1C2CCC1CC(N1CCC[C@@H](NC(=O)OC(C)(C)C)C1)C2` (stereo partly drawn) [Example 1, ethyl 3-((R)-3-((tert-butoxycarbonyl)amino)piperidin-1-yl)-8-azabicyclo[3.2.1]octane-8-carboxylate], the Emax at rM1 was 74%; at hM1, 29%. Also, the values for the EC50 at rM1 (setting [1]) and at hM1 (setting [2]) were 267 nM and 2000 nM, respectively.
In the case of `CCOC(=O)N1C2CCC1CC(N1CCC[C@@H](NC(=O)c3ccccc3C)C1)C2` (stereo partly drawn) [Example 2, ethyl 3-((R)-3-(2-methylbenzamido)piperidin-1-yl)-8-azabicyclo[3.2.1]octane-8-carboxylate], on rM1, the EC50 stood at 5 nM and the Emax stood at 94%. Further, at hM1, the EC50 worked out at 53 nM and the Emax was 88%.
Regarding `CCOC(=O)N1C2CCC1CC(N1CCC[C@@H](NC(=O)c3ccccc3)C1)C2` (stereo partly drawn) [Example 3, ethyl 3-((R)-3-benzamidopiperidin-1-yl)-8-azabicyclo[3.2.1]octane-8-carboxylate], the Emax was 93% on rM1 and 79% on hM1. Besides, the values for the EC50 at rM1 (setting [1]) and at hM1 (setting [2]) were 112 nM and 1600 nM, respectively.
In the case of `CCOC(=O)N1C2CCC1CC(N1CCC[C@@H](NC(=O)c3ccc(F)cc3F)C1)C2` (stereo partly drawn) [Example 5, ethyl 3-((R)-3-(2,4-difluorobenzamido)piperidin-1-yl)-8-azabicyclo[3.2.1]octane-8-carboxylate], on rM1, the EC50 is 69 nM and the Emax stood at 89%.
The like results for `CCOC(=O)N1C2CCC1CC(N1CCC[C@@H](NC(=O)c3cccc(C)c3)C1)C2` (stereo partly drawn) [Example 6, ethyl 3-((R)-3-(3-methylbenzamido)piperidin-1-yl)-8-azabicyclo[3.2.1]octane-8-carboxylate] were, in that order, 41 nM and 94%.
As to `CCOC(=O)N1C2CCC1CC(N1CCC[C@@H](NC(=O)c3ccc(F)c(C)c3)C1)C2` (stereo partly drawn) [Example 8, ethyl 3-((R)-3-(4-fluoro-3-methylbenzamido)piperidin-1-yl)-8-azabicyclo[3.2.1]octane-8-carboxylate], at rM1, the EC50 stood at 48 nM and the Emax came out at 93%.
The like results for `CCOC(=O)N1C2CCC1CC(N1CCC[C@@H](NC(=O)c3ccc(F)cc3)C1)C2` (stereo partly drawn) [Example 9, ethyl 3-((R)-3-(4-fluorobenzamido)piperidin-1-yl)-8-azabicyclo[3.2.1]octane-8-carboxylate] were, in that order, 38 nM and 95%.
The like results for `CCOC(=O)N1C2CCC1CC(N1CCC[C@@H](NC(=O)c3cc(F)cc(F)c3)C1)C2` (stereo partly drawn) [Example 10, ethyl 3-((R)-3-(3,5-difluorobenzamido)piperidin-1-yl)-8-azabicyclo[3.2.1]octane-8-carboxylate] were, in that order, 96 nM and 90%.
For the compound `CCOC(=O)N1C2CCC1CC(N1CCC[C@@H](NC(=O)c3cc(Cl)ccc3F)C1)C2` (stereo partly drawn) [Example 11, ethyl 3-((R)-3-(5-chloro-2-fluorobenzamido)piperidin-1-yl)-8-azabicyclo[3.2.1]octane-8-carboxylate], the Emax on rM1 was 65%. The half-maximal effective concentration (EC50) at rM1 (setting [1]) was 590 nM.
Consider `CCOC(=O)N1C2CCC1CC(N1CCC[C@@H](NC(=O)c3ccc(F)c(F)c3)C1)C2` (stereo partly drawn) [Example 12, ethyl 3-((R)-3-(3,4-difluorobenzamido)piperidin-1-yl)-8-azabicyclo[3.2.1]octane-8-carboxylate], for which, on hM1, the Emax came out at 68%. Also, the EC50 on hM1 (setting [2]) is 750 nM.
With `CCOC(=O)N1C2CCC1CC(N1CCC[C@@H](NC(=O)c3ccccc3F)C1)C2` (stereo partly drawn) [Example 13, ethyl 3-((R)-3-(2-fluorobenzamido)piperidin-1-yl)-8-azabicyclo[3.2.1]octane-8-carboxylate], the Emax at hM1 stood at 38%. The EC50 on hM1 (setting [2]) came to 4200 nM.
Consider `CCOC(=O)N1C2CCC1CC(N1CCC[C@@H](NC(=O)c3ccc(F)cc3Cl)C1)C2` (stereo partly drawn) [Example 14, ethyl 3-((R)-3-(2-chloro-4-fluorobenzamido)piperidin-1-yl)-8-azabicyclo[3.2.1]octane-8-carboxylate], for which the Emax at hM1 was 68%. Further, on hM1 (setting [2]), the EC50 came out at 620 nM.
The like results for `CCOC(=O)N1C2CCC1CC(N1CCC[C@@H](NC(=O)c3c(F)cccc3F)C1)C2` (stereo partly drawn) [Example 15, ethyl 3-((R)-3-(2,6-difluorobenzamido)piperidin-1-yl)-8-azabicyclo[3.2.1]octane-8-carboxylate] were, in that order, 66% and 330 nM.
Taken in the same sequence, the figures for `CCOC(=O)N1C2CCC1CC(N1CC[C@@H](NC(=O)c3ccccc3C)C1)C2` (stereo partly drawn) [Example 16, ethyl 3-((R)-3-(2-methylbenzamido)pyrrolidin-1-yl)-8-azabicyclo[3.2.1]octane-8-carboxylate] were 57% and 940 nM.
On to `CCOC(=O)N1C2CCC1CC(N1CC[C@@H](NC(=O)c3ccccc3)C1)C2` (stereo partly drawn) [Example 17, ethyl 3-((R)-3-benzamidopyrrolidin-1-yl)-8-azabicyclo[3.2.1]octane-8-carboxylate], for which the Emax at hM1 is 54%. Further, the EC50 on hM1 (setting [2]) was found to be 160 nM.
